From patent US11820747B2, “PPARG inverse agonists and uses thereof” (Flare Therapeutics Inc., priority 2021, dated 2023)

Columns and labels:
[1] = molecular target: T1, PPARG/RXRA LBD heterodimer (Homo sapiens, UniProt P37231); test: PPARγ-NCOR1 recruitment assay (TR-FRET, biotinylated NCOR1 ID2 peptide); format: binding; settings: for Emax: 3 h, maximal extent, T0070907 defined as 100%, DMSO 0%, read-out: % NCOR recruitment relative to T907; for EC50: TR-FRET, 80 nM Rosiglitazone, 3 hours incubation, read-out: PPARG-NCOR recruitment assay EC50
T1 construct: His-TEV-Q203-Y477: Uniprot ID P37231-2; made in house; host or cells: E. coli
Protocol: PPARγ-NCOR1 Recruitment Assay:
Compound potency (EC50) and maximal extent of NCOR1 recruitment to PPARG were assessed a TR-FRET binding assay measuring association of a biotinylated NCOR1 ID2 peptide (Biotin-[…]-amide) to PPARG/RXRA LBD heterodimer. Specifically, a 20 microliters of TR-FRET master mix consisting of 2 nM WT PPARG LBD (E. coli expressed, His-TEV-Q203-Y477: Uniprot ID P37231-2), 2 nM WT RXRA LBD or mutant S427F RXRA LBD (E. coli expressed, Flag-TEV-E228-T462; […]. Mixtures were incubated for 3 hours and read in an EnVision plate reader (Perkin Elmer) with […]. To determine the potency (EC50) and extent of NCOR1 recruitment, TR-FRET ratios were normalized to the average ratio of DMSO control wells (0%) and to the average maximum ratio for positive control compound (T0070907 (2-chloro-5-nitro-N-4-pyridinyl-benzamide); defined as 100%) in CDD Vault and analyzed using the Levenberg-Marquardt algorithm.
T1 sequence (O75376 2251-2273 partner, one chain of several): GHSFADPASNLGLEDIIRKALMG

[2] = tested on: ANGPTL4, a PPARG target gene, in HT1197 (RXRA S427F mutation) cells; test: Bladder cancer pharmacodynamic assay, HT1197 cell assay (quantitative PCR of PPARG target genes); format: cell-based; settings: Homo sapiens; for inhibition at 0.1 µM: 100 nM compound, 24 hours, percentage of a DMSO control; for EC50: 24 hours treatment, qPCR
Protocol: Bladder Cancer Pharmacodynamic Assay
5637 (PPARG amplified) and HT1197 (RXRA S427F mutation) cells were used for assessment of modulation of PPARG target genes using quantitative PCR. Cells were treated for 24 hours with PPARG inverse agonists prior to analysis of FABP4 (IDT, Cat: Hs.PT 58.20106818) and ANGPTL4 (IDT, Cat: Hs.PT 58.25480012) expression, with expression of the housekeeping gene TBP (IDT, Cat: Hs.PT 58v.39858774) used to normalize expression across samples. Quantitative PCR was performed using an ABI QuantStudio 7 Flex Reaction system. Data were analyzed and reported relative to DMSO control using the comparative Ct method (ΔΔCt).

[3] = molecular target: T2, PPARG/RXRA LBD heterodimer (Homo sapiens, UniProt P37231); test: PPARγ-MED1 blockade assay (TR-FRET, biotinylated MED1 LxxLL peptide); format: binding; settings: for Emax: 3 h, maximal extent, GW9662 defined as 100%, DMSO 0%, read-out: % MED1 blockade relative to GW9662; for EC50: TR-FRET, 80 nM Rosiglitazone, 3 hours incubation
T2 construct: His-TEV-Q203-Y477; Uniprot ID P37231-2; made in house; host or cells: E. coli
T2 sequence (P37231 203-477 isoform P37231-2): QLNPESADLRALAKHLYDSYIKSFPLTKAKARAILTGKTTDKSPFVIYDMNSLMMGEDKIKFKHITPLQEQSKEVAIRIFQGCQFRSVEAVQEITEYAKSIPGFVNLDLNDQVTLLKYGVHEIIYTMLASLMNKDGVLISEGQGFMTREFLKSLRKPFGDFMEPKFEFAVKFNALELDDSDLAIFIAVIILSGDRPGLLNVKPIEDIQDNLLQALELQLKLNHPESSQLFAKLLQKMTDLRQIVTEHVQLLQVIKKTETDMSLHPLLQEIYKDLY
T2 sequence (P19793 228-462 partner limits assumed): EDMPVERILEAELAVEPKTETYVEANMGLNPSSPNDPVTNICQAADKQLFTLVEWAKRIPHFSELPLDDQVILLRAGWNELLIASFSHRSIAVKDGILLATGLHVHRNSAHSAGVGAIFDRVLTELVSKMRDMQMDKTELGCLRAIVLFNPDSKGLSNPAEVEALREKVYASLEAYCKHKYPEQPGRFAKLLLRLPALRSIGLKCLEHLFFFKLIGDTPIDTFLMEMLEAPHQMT
Protocol: PPARγ-MED1 Blockade Assay:
Compound potency (ICs) and maximal extent of MED1 repulsion to PPARG were assessed a TR-FRET binding assay measuring association of a biotinylated MED1 LxxLL peptide (Biotin-[…]-amide) to PPARG/RXRA LBD heterodimer. Specifically, a 20 microliters of TR-FRET master mix consisting of 2 nM WT PPARG LBD (E. coli expressed, His-TEV-Q203-Y477; Uniprot ID P37231-2), 2 nM WT RXRA LBD (E. coli expressed, Flag-TEV-E228-T462; […]. Mixtures were incubated for 3 hours and read in an EnVision plate reader (Perkin Elmer) with […]. To determine the potency (ICso) and extent of MED1 repulsion. TR-FRET ratios were normalized to the average ratio of DMSO control wells (0%) and to the average minimum ratio for positive control compound (GW9662 (2-chloro-5-nitrobenzanilide); defined as 100%/6) in CDD Vault and analyzed using the Levenberg-Marquardt algorithm.

Emax [1] [%]	EC50 [1] [nM]	Emax [3] [%]	EC50 [3] [nM]	EC50 [2] [nM]	Compound	inhibition at 0.1 µM [2] [%]
> 100	100 to 1000	> 100	100 to 1000	–	CCS(=O)(=O)c1ccc(C#N)cc1-c1cc(=O)c2c(F)cc(F)cc2[nH]1 [Example 2, 3-(5,7-difluoro-4-oxo-1,4-dihydroquinolin-2-yl)-4-(ethylsulfonyl)-benzonitrile]	86
–	> 10000	–	> 10000	–	CSc1ccc(C#N)cc1-c1cc(=O)c2c(F)cc(F)cc2[nH]1 [Example 6, 3-(5,7-difluoro-4-oxo-1,4-dihydroquinolin-2-yl)-4-(methylthio)benzonitrile]	17
> 100	100 to 1000	> 100	100 to 1000	–	N#Cc1ccc(S(=O)(=O)CC(F)(F)F)c(-c2cc(=O)c3c(F)cc(F)cc3[nH]2)c1 [Example 4, 3-(5,7-difluoro-4-oxo-1,4-dihydroquinolin-2-yl)-4-((2,2,2-trifluoroethyl)sulfonyl)-benzonitrile]	14
< 100	> 10000	< 100	> 10000	–	CC(C)S(=O)(=O)c1ccc(C#N)cc1-c1cc(=O)c2c(F)cc(F)cc2[nH]1 [Example 12, 3-(5,7-difluoro-4-oxo-1,4-dihydroquinolin-2-yl)-4-(isopropylsulfonyl)benzonitrile]	67
> 100	100 to 1000	> 100	100 to 1000	1.3	CS(=O)(=O)c1ccc(C#N)cc1-c1cc(=O)c2c(F)cc(F)cc2[nH]1 [Example 1, 3-(5,7-difluoro-4-oxo-1,4-dihydroquinolin-2-yl)-4-(methylsulfonyl)benzonitrile]	88
> 100	10 to 100	> 100	10 to 100	0.9	CS(=O)(=O)c1ccc(C#N)cc1-c1cc(=O)c2ccc(Cl)cc2[nH]1 [Example 9, 3-(7-chloro-4-oxo-1,4-dihydroquinolin-2-yl)-4-(methylsulfonyl)benzonitrile]	85
> 100	100 to 1000	> 100	100 to 1000	–	CN1CCN(c2c(F)cc3[nH]c(-c4cc(C#N)ccc4S(C)(=O)=O)cc(=O)c3c2F)CC1 [Example 3, 3-(5,7-difluoro-6-(4-methylpiperazin-1-yl)-4-oxo-1,4-dihydroquinolin-2-yl)-4-(methylsulfonyl)-benzonitrile]	66
> 100	10 to 100	> 100	10 to 100	–	Cc1ccc(-c2c(F)cc3[nH]c(-c4cc(C#N)ccc4S(C)(=O)=O)cc(=O)c3c2F)cn1 [Example 15, 3-(5,7-difluoro-6-(6-methylpyridin-3-yl)-4-oxo-1,4-dihydroquinolin-2-yl)-4-(methylsulfonyl)benzonitrile]	68
> 100	1000 to 10000	> 100	1000 to 10000	–	N#Cc1ccc([S+]([O-])CC(F)(F)F)c(-c2cc(=O)c3c(F)cc(F)cc3[nH]2)c1 (centres unmarked) [Example 5]	15
> 100	10 to 100	> 100	10 to 100	–	Cn1cc(-c2c(F)cc3[nH]c(-c4cc(C#N)ccc4S(C)(=O)=O)cc(=O)c3c2F)cn1 [Example 14]	89
> 100	1000 to 10000	> 100	> 10000	–	C[S+]([O-])c1ccc(C#N)cc1-c1cc(=O)c2c(F)cc(F)cc2[nH]1 (centres unmarked) [Example 7, 3-(5,7-difluoro-4-oxo-1,4-dihydroquinolin-2-yl)-4-(methylsulfinyl)benzonitrile]	26
> 100	100 to 1000	> 100	100 to 1000	–	CS(=N)(=O)c1ccc(C#N)cc1-c1cc(=O)c2c(F)cc(F)cc2[nH]1 (centres unmarked) [Example 8, 3-(5,7-difluoro-4-oxo-1,4-dihydroquinolin-2-yl)-4-(S-methylsulfonimidoyl)benzonitrile]	84
< 100	1000 to 10000	< 100	1000 to 10000	–	CC(C)CS(=O)(=O)c1ccc(C#N)cc1-c1cc(=O)c2c(F)cc(F)cc2[nH]1 [Example 13, 3-5,7-difluoro-4-oxo-1,4-dihydroquinolin-2-yl-4-(isobutylsulfonyl)benzonitrile]	77
> 100	10 to 100	> 100	10 to 100	1.6	CS(=O)(=O)c1ccc(C#N)cc1-c1cc(=O)c2c(F)cc(Cl)cc2[nH]1 [Example 10]	89
> 100	< 10	> 100	< 10	0.07	N#Cc1ccc(S(=O)(=O)C(F)(F)F)c(-c2cc(=O)c3c(F)cc(F)cc3[nH]2)c1 [Example 11]	88
